Measured values published in ChEMBL document CHEMBL1122789, “Synthesis and biological activity of structural analogues of the anticancer benzophenanthridine alkaloid nitidine chloride” (1984).

Experiments:
[1] = Evaluated for anticancer activity in tumor inhibition system colon 38 tumor at dose 100 mg/kg; format: functional, Mus musculus
P388 [2] = assay: Evaluated for anticancer activity in survival tumor system P388 lymphocytic leukemia at a dose of 25 mg/kg, value was reported as weight difference; format: functional, Mus musculus
B16 [3] = assay: Evaluated for anticancer activity in survival tumor system B16 melanocarcinoma at a dose of 25 mg/kg, value was reported as weight difference; format: functional, Mus musculus
[4] = Evaluated for anticancer activity in tumor inhibition system CD8F1 mammary tumor at dose 125 mg/kg; format: functional, Mus musculus
L1210 [5] = assay: Evaluated for anticancer activity in survival tumor system L1210 lymphoid leukemia at dose 12.5 mg/kg; format: functional, Mus musculus
[6] = Evaluated for anticancer activity in tumor inhibition system colon 38 tumors at a dose of 400 mg/kg; Number of Tested survived/number of control survived (10/10); format: functional, Mus musculus
MX1 [7] = assay: Evaluated for anticancer activity in tumor inhibition system MX-1 breast xenograph at a dose of 300 mg/kg; Number of Tested survived/number of control survived (1/6); format: functional, Homo sapiens
[8] = test system: Lewis lung carcinoma cell line; assay: Evaluated for anticancer activity in survival tumor system tumor system Lewis lung (LL) carcinoma at a dose of 100 mg/kg; Number of Tested survived/number of control survived (10/10); format: functional, Mus musculus
B16 [9] = assay: Evaluated for anticancer activity in survival tumor system B16 melanocarcinoma at a dose of 12.5 mg/kg; Number of Tested survived/number of control survived (9/10); format: functional, Mus musculus
L1210 [10] = assay: Evaluated for anticancer activity in survival tumor system L1210 lymphoid leukemia at a dose of 25 mg/kg; Number of Tested survived/number of control survived (6/6); format: functional, Mus musculus
L1210 [11] = assay: Evaluated for anticancer activity in survival tumor system L1210 lymphoid leukemia at dose 50 mg/kg; format: functional, Mus musculus
[12] = Evaluated for anticancer activity in tumor inhibition system CD8F mammary tumor at a dose of 125 mg/kg, value was reported as weight difference; format: functional, Mus musculus
P388 [13] = assay: Evaluated for anticancer activity in survival tumor system P388 lymphocytic leukemia at a dose of 200 mg/kg; Number of Tested survived/number of control survived (0/6); format: functional, Mus musculus
[14] = Evaluated for anticancer activity in tumor inhibition system colon 38 tumor at dose 400 mg/kg; format: functional, Mus musculus
B16 [15] = assay: Evaluated for anticancer activity in survival tumor system B16 melanocarcinoma at dose 100 mg/kg; format: functional, Mus musculus
MX1 [16] = assay: Evaluated for anticancer activity in tumor inhibition system MX-1 breast xenograph at dose 150 mg/kg; format: functional, Homo sapiens
[17] = Evaluated for anticancer activity in tumor inhibition system colon 38 tumor at dose 50 mg/kg; format: functional, Mus musculus
L1210 [18] = assay: Evaluated for anticancer activity in survival tumor system L1210 lymphoid leukemia at a dose of 6.25 mg/kg, value was reported as weight difference; format: functional, Mus musculus
MX1 [19] = assay: Evaluated for anticancer activity in tumor inhibition system MX-1 breast xenograph at a dose of 150 mg/kg; Number of Tested survived/number of control survived (5/6); conditions: Homo sapiens
[20] = Evaluated for anticancer activity in tumor inhibition system colon 38 at a dose of 400 mg/kg, value was reported as weight difference; format: functional, Mus musculus
[21] = Evaluated for anticancer activity in tumor inhibition system colon 38 tumors at a dose of 50 mg/kg; Number of Tested survived/number of control survived (10/10); format: functional, Mus musculus
[22] = Evaluated for anticancer activity in tumor inhibition system colon 38 at a dose of 200 mg/kg, value was reported as weight difference; format: functional, Mus musculus
L1210 [23] = assay: Evaluated for anticancer activity in survival tumor system L1210 lymphoid leukemia at dose 6.25 mg/kg; format: functional, Mus musculus
P388 [24] = assay: Evaluated for anticancer activity in survival tumor system P388 lymphocytic leukemia at a dose of 50 mg/kg, value was reported as weight difference; format: functional, Mus musculus
B16 [25] = assay: Evaluated for anticancer activity in survival tumor system B16 melanocarcinoma at a dose of 25 mg/kg; Number of Tested survived/number of control survived (10/10); format: functional, Mus musculus
[26] = Evaluated for anticancer activity in tumor inhibition system CD8F1 mammary tumors at a dose of 250 mg/kg; number of Tested survived/number of control survived; format: functional, Mus musculus
[27] = Evaluated for anticancer activity in tumor inhibition system colon 38 at a dose of 50 mg/kg, value was reported as weight difference; format: functional, Mus musculus
P388 [28] = assay: Evaluated for anticancer activity in survival tumor system P388 lymphocytic leukemia at a dose of 50 mg/kg;Number of Tested survived/number of control survived (5/5); conditions: Mus musculus
L1210 [29] = assay: Evaluated for anticancer activity in survival tumor system L1210 lymphoid leukemia at dose 100 mg/kg; format: functional, Mus musculus
L1210 [30] = assay: Evaluated for anticancer activity in survival tumor system L1210 lymphoid leukemia at a dose of 100 mg/kg; Number of Tested survived/number of control survived (6/6); format: functional, Mus musculus
[31] = Evaluated for anticancer activity in tumor inhibition system CD8F mammary tumor at a dose of 62 mg/kg, value was reported as weight difference; format: functional, Mus musculus
[32] = test system: Lewis lung carcinoma cell line; assay: Evaluated for anticancer activity in survival tumor system Lewis lung (LL) carcinoma at dose 100 mg/kg; format: functional, Mus musculus
P388 [33] = assay: Evaluated for anticancer activity in survival tumor system P388 lymphocytic leukemia at dose 25 mg/kg; format: functional, Mus musculus
B16 [34] = assay: Evaluated for anticancer activity in survival tumor system B16 melanocarcinoma at a dose of 6.25 mg/kg; Number of Tested survived/number of control survived (10/10); format: functional, Mus musculus
[35] = test system: Lewis lung carcinoma cell line; assay: Evaluated for anticancer activity in survival tumor system tumor system Lewis lung (LL) carcinoma at a dose of 200 mg/kg; Number of Tested survived/number of control survived (2/10); format: functional, Mus musculus
L1210 [36] = assay: Evaluated for anticancer activity in survival tumor system L1210 lymphoid leukemia at dose 3.12 mg/kg; format: functional, Mus musculus
B16 [37] = assay: Evaluated for anticancer activity in survival tumor system B16 melanocarcinoma at a dose of 50 mg/kg; number of Tested survived/number of control survived; format: functional, Mus musculus
B16 [38] = assay: Evaluated for anticancer activity in survival tumor system B16 melanocarcinoma at a dose of 50 mg/kg, value was reported as weight difference; format: functional, Mus musculus
B16 [39] = assay: Evaluated for anticancer activity in survival tumor system B16 melanocarcinoma at a dose of 12.5 mg/kg, value was reported as weight difference; format: functional, Mus musculus
[40] = test system: Lewis lung carcinoma cell line; assay: Evaluated for anticancer activity in survival tumor system Lewis lung (LL) carcinoma at a dose of 25 mg/kg; number of Tested survived/number of control survived; format: functional, Mus musculus
L1210 [41] = assay: Evaluated for anticancer activity in survival tumor system L1210 lymphoid leukemia at dose 25 mg/kg; conditions: Mus musculus
MX1 [42] = assay: Evaluated for anticancer activity in tumor inhibition system MX-1 breast xenograph at a dose of 600 mg/kg; Number of Tested survived/number of control survived (0/6); format: functional, Homo sapiens
L1210 [43] = assay: Evaluated for anticancer activity in survival tumor system L1210 lymphoid leukemia at a dose of 3.125 mg/kg; Number of Tested survived/number of control survived (6/6); format: functional, Mus musculus

COc1cc2c[n+](C)c3c(c2cc1OC)Cc1cc2c(cc1-3)OCO2.[Cl-]
T/C [1]: 107%
Weight change (P388 [2]): -3.6
Weight change (B16 [3]): -2.5
T/C [4]: 105%
T/C (L1210 [5]): 156%
Survival [6]: 10
Survival (MX1 [7]): 1
Survival [8]: 10
Survival (B16 [9]): 9
Survival (L1210 [10]): 6
T/C (L1210 [11]): 198%
Weight change [12]: -3.2
Survival (P388 [13]): 0
T/C [14]: 85%
T/C (B16 [15]): 120%
T/C (MX1 [16]): 35%
T/C [17]: 94%
Weight change (L1210 [18]): -3.2
Survival (MX1 [19]): 5
Weight change [20]: -6.2
Survival [21]: 10
Weight change [22]: -4.3
T/C (L1210 [23]): 154%
Weight change (P388 [24]): -5
Survival (B16 [25]): 10
Survival [26]: 2
Weight change [27]: -0.8
Survival (P388 [28]): 5
T/C (L1210 [29]): 95%
Survival (L1210 [30]): 6
Weight change [31]: -1
T/C [32]: 51%
T/C (P388 [33]): 151%
Survival (B16 [34]): 10
Survival [35]: 2
T/C (L1210 [36]): 129%
Survival (B16 [37]): 10
Weight change (B16 [38]): -4.9
Weight change (B16 [39]): -1
Survival [40]: 10
T/C (L1210 [41]): 165%
Survival (MX1 [42]): 0
Survival (L1210 [43]): 6
